The source of these data is ChEMBL document CHEMBL5053549, “Discovery of Potent and Novel Dual PARP/BRD4 Inhibitors for Efficient Treatment of Pancreatic Cancer” (J Med Chem, 2021).

The structures appear in SMILES notation. Activity calls are given as the source filed them. The calls are words filed in the database; no cut-off is given here.

The subject of one data set is CFPAC-1. As to the kind of experiment: Antiproliferative activity against human CFPAC-1 cells assessed as reduction in cell viability after 4 days by MTT assay. Type of data set: functional, cell-based. The settings on record: CFPAC-1, 96 h, read-out: IC50. Background: Tetrazolium dyes change colour on reduction, which living cells bring about.
A further data set concerns CAPAN-1. As to the kind of experiment: Antiproliferative activity against human CAPAN-1 cells assessed as reduction in cell viability after 4 days by MTT assay. Type of data set: functional, cell-based. The settings on record: CAPAN-1, 96 h.
Data set [1] concerns SW1990. The data set is described as follows: Antiproliferative activity against human SW1990 cells assessed as reduction in cell viability after 4 days by MTT assay. The class given is functional, cell-based. Particulars: SW1990, 96 h.
Data set [2] deals with Bromodomain-containing protein 4 (Homo sapiens, UniProt O60885). As to the kind of experiment: Inhibition of recombinant BRD4 (unknown origin) incubated for 120 mins by TR-FRET assay.
The test system of the next data set is MDA-MB-231. The data set is described as follows: Antiproliferative activity against human MDA-MB-231 cells assessed as reduction in cell viability after 7 days. The class given is functional, cell-based. Particulars: MDA-MB-231, 168 h.
The target in data set [3] is T1, Bromodomain testis-specific protein (Homo sapiens, UniProt Q58F21). The data set is described as follows: Inhibition of recombinant BRDT BD1 (unknown origin) incubated for 120 mins by TR-FRET assay. In general terms: In TR-FRET formats the signal depends on donor and acceptor labels being close together.
Data set [4] addresses T1, Bromodomain testis-specific protein. The data set is described as follows: Inhibition of recombinant BRDT BD2 (unknown origin) incubated for 120 mins by TR-FRET assay.
The target in data set [5] is Histone acetyltransferase p300 (Homo sapiens, UniProt Q09472). The data set is described as follows: Inhibition of P300 (unknown orign) using acetyl-CoA as substrate preincubated for 30 mins followed by substrate addition measured after 1 hr by microplate reader analysis.
Histone acetyltransferase p300, sequence (Q09472 whole entry): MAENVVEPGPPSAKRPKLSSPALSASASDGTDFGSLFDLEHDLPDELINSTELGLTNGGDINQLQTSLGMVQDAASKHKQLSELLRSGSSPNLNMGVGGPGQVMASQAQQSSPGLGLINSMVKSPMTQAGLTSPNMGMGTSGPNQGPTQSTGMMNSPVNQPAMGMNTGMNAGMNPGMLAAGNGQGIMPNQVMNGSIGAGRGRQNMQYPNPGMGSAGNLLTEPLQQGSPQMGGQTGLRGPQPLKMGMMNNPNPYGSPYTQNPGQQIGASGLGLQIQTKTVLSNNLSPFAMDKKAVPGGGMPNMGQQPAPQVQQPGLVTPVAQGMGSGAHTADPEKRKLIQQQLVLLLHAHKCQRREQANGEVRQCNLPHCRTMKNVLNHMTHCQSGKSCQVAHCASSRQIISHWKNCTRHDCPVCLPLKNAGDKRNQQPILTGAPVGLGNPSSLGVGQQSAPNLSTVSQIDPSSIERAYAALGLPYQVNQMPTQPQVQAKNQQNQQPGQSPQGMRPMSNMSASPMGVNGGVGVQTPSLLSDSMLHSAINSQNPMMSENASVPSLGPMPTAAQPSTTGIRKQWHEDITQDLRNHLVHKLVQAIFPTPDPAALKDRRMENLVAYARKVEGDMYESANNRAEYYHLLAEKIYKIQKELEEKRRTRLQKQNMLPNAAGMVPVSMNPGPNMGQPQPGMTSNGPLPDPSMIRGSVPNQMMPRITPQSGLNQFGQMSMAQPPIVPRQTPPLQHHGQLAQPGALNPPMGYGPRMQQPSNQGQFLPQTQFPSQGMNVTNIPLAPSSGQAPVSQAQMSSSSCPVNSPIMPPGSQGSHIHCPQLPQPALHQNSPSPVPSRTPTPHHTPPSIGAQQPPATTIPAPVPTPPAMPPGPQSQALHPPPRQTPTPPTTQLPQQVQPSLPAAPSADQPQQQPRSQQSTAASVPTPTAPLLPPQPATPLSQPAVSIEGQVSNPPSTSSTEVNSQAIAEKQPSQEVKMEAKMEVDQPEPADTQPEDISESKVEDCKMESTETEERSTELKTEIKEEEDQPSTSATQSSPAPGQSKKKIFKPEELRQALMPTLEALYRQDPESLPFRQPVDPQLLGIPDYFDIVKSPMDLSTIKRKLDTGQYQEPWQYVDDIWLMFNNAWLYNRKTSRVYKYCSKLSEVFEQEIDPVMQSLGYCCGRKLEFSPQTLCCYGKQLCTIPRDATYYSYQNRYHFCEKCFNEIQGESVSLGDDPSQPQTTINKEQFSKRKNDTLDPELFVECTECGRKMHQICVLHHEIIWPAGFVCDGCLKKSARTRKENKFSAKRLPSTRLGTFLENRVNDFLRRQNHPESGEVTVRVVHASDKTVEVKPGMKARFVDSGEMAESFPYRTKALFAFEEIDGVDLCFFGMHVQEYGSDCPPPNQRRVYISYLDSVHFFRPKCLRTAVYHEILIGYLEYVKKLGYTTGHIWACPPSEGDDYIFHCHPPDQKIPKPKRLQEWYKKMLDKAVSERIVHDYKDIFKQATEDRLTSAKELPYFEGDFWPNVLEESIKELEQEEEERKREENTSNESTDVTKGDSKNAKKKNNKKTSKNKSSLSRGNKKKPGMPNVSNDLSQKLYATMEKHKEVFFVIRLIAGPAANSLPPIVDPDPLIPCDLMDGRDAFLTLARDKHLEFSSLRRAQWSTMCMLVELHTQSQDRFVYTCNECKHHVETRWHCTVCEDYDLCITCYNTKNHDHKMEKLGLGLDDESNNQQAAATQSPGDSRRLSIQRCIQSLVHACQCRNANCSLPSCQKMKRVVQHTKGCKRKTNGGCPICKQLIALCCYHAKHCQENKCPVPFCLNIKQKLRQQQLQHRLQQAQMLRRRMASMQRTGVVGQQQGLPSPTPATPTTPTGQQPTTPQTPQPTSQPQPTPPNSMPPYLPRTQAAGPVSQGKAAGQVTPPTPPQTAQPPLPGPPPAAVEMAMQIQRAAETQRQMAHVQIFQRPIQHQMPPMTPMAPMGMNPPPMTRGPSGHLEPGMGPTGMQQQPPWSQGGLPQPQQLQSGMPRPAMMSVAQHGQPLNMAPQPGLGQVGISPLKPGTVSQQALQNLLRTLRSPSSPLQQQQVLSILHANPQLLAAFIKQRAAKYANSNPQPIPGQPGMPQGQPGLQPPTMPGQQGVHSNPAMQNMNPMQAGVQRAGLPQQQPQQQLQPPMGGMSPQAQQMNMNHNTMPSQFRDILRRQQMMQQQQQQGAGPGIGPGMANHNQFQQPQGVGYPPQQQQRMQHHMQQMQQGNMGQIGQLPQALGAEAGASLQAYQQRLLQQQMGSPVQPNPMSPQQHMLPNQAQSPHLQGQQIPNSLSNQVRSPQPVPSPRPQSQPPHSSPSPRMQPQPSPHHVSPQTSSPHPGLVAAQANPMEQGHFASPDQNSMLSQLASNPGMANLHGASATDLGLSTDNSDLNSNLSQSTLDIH
For data set [6], the system named is Mus musculus. As to the kind of experiment: Toxicity in BALB/c mouse xenografted with human SW1990 cells assessed as liver damage at 45 mg/kg, ip administered for 28 consecutive days by H and E staining based […] microscopic analysis. Type of data set: organism-based. Particulars: in vivo, 672 h, time 28 day.
For data set [7], the system named is SW1990. As to the kind of experiment: Induction of cell cycle arrest in human SW1990 cells assessed as accumulation of cells at S phase at 1 uM incubated for 4 days by propidium iodide staining based flow cytometry (reference value: 29.32%). The class given is functional. The settings on record: time 4 day.
Data set [8] relates to SW1990. The data set is described as follows: Induction of cell cycle arrest in human SW1990 cells assessed as accumulation of cells at G0/G1 phase at 2 uM incubated for 4 days by propidium iodide staining based flow cytometry (reference value: 64.79%). Type of data set: functional. The settings on record: time 4 day. On the technique in general: In flow cytometry, cells or beads pass a laser one at a time.

Data set [9] concerns Mus musculus. The data set is described as follows: Effect on cell cycle progression in human SW1990 cells xenografted in BALB/c mouse assessed as reduction in CCND1 expression at 45 mg/kg, ip after 4 days by Western blot analysis. Type of data set: functional, organism-based. The settings on record: time 4.0 day.
Data set [10] deals with SW1990. The data set is described as follows: Effect on cell cycle progression in human SW1990 cells assessed as reduction in CCND1 expression at 1 to 2 uM after 4 days by Western blot analysis. Particulars: dose 1-2 µM, time 4.0 day. Type of data set: functional, cell-based.
Data set [11] has as its system SW1990. The data set is described as follows: Effect on cell cycle progression in human SW1990 cells assessed as reduction in E2F2 expression at 1 to 2 uM after 4 days by Q-PCR analysis. Type of data set: functional, cell-based. Particulars: dose 1-2 µM, time 4.0 day.
For data set [12], the system named is SW1990. As to the kind of experiment: Induction of DNA damage in human SW1990 cells assessed as increase in gammaH2AX at 1 to 2 uM incubated for 4 days by immunofluorescence assay. The class given is functional, cell-based. The settings on record: dose 1-2 µM, time 4.0 day.
Data set [13] relates to SW1990. As to the kind of experiment: Inhibition of homologous recombinant repair in human SW1990 cells assessed as reduction in FOXM1 expression at 1 to 2 uM after 4 days by Western blot analysis. Type of data set: functional, cell-based. Particulars: dose 1-2 µM, time 4.0 day.
The subject of data set [14] is SW1990. As to the kind of experiment: Inhibition of homologous recombinant repair in human SW1990 cells assessed as reduction in Rad51 expression at 1 to 2 uM after 4 days by Q-PCR analysis. Type of data set: functional, cell-based. The settings on record: dose 1-2 µM, time 4.0 day.
Data set [15] relates to SW1990. As to the kind of experiment: Inhibition of homologous recombinant repair in human SW1990 cells assessed as reduction in Rad51 expression at 1 to 2 uM after 4 days by Western blot analysis. Type of data set: functional, cell-based. The settings on record: dose 1-2 µM, time 4.0 day.
The subject of data set [16] is SW1990. As to the kind of experiment: Induction of autophagy in human SW1990 cells assessed as increase in LC3B expression at 1 to 2 uM incubated for 4 days by immunofluorescence assay. The class given is functional, cell-based. Particulars: dose 1-2 µM, time 4.0 day.
Data set [17] relates to SW1990. As to the kind of experiment: Induction of autophagy in human SW1990 cells assessed as increase in LC3B expression at 4 uM incubated for 4 days by immunofluorescence assay. The class given is functional, cell-based. Particulars: time 4.0 day.
The target of data set [18] is Poly [ADP-ribose] polymerase 1 (Homo sapiens, UniProt P09874). The data set is described as follows: Inhibition of PARP1 in human SW1990 cells assessed as reversal of Olaparib-induced PARP1 accumulation in nucleus at 1 uM after 4 days by Western blot analysis. Type of data set: cell-based. The settings on record: time 4.0 day.
Poly [ADP-ribose] polymerase 1, sequence (P09874 whole entry): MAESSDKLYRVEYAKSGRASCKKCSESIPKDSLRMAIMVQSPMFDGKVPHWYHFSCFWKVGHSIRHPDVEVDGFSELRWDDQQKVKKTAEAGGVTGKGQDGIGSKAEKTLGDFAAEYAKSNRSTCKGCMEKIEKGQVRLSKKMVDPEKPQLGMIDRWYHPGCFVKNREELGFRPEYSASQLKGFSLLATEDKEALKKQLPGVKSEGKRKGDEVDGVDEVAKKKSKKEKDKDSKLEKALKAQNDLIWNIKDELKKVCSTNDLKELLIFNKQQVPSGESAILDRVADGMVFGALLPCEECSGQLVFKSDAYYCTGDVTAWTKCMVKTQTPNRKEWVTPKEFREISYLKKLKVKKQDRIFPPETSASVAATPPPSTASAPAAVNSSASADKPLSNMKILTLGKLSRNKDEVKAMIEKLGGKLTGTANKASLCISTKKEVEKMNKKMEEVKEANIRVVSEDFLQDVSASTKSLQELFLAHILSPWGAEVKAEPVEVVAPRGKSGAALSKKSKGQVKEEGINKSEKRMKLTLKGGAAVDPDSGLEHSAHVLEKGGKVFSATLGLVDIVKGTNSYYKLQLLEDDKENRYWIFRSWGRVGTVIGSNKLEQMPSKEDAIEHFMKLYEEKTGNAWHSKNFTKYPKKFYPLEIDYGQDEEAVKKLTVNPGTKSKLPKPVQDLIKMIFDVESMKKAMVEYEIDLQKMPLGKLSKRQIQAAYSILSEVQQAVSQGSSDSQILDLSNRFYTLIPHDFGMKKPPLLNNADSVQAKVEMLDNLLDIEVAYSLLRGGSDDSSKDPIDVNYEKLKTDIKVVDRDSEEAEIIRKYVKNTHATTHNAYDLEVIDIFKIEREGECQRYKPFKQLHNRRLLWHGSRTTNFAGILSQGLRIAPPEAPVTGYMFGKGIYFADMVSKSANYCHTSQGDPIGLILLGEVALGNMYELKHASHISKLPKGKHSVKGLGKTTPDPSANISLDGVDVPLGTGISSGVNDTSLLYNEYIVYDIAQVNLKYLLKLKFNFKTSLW
Data set [19] relates to Mus musculus. The data set is described as follows: Toxicity in BALB/c mouse xenografted with human SW1990 cells assessed as effect on body weight at 15 mg/kg, ip administered for 28 consecutive days in presence of 45 mg/kg Olaparib. Type of data set: organism-based. The settings on record: in vivo, 672 h, time 28 day.
The test system of data set [20] is Mus musculus. As to the kind of experiment: Toxicity in BALB/c mouse xenografted with human SW1990 cells assessed as heart damage at 15 mg/kg, ip administered for 28 consecutive days by H and E staining based […] microscopic analysis. Particulars: in vivo, 672 h, time 28 day. The class given is organism-based.
In data set [21] the test system is Mus musculus. As to the kind of experiment: Toxicity in BALB/c mouse xenografted with human SW1990 cells assessed as kidney damage at 15 mg/kg, ip administered for 28 consecutive days in presence of 45 mg/kg Olaparib. The class given is organism-based. Particulars: in vivo, 672 h, time 28 day.
Data set [22] concerns Mus musculus. As to the kind of experiment: Toxicity in BALB/c mouse xenografted with human SW1990 cells assessed as lung damage at 15 mg/kg, ip administered for 28 consecutive days in presence of 45 mg/kg Olaparib. Type of data set: organism-based. The settings on record: in vivo, 672 h, time 28 day.
Data set [23] deals with Mus musculus. As to the kind of experiment: In vivo inhibition of BRD4 expression in human SW1900 cells xenografted in BALB/c mouse assessed as reversal of Olaparib-induced BRD4 accumulation at 15 mg/kg, ip administered for 28 consecutive days in presence of 45 mg/kg Olaparib by Western blot analysis. The class given is functional, organism-based. Particulars: time 28.0 day.

For data set [24], the system named is SW1990. The data set is described as follows: Induction of cell cycle arrest in human SW1990 cells assessed as accumulation of cells at G2/M phase at 4 uM incubated for 4 days by propidium iodide staining based flow cytometry (reference value: 5.89%). Type of data set: functional. The settings on record: time 4 day.
In data set [25] the test system is SW1990. As to the kind of experiment: Effect on cell cycle progression in human SW1990 cells assessed as reduction in Olaparib-induced CDK6 expression at 1 uM after 4 days in presence of Olaparib by Western blot analysis. The class given is functional, cell-based. The settings on record: time 4.0 day.
The subject of data set [26] is SW1990. As to the kind of experiment: Effect on cell cycle progression in human SW1990 cells assessed as reduction in Olaparib-induced CCND1 expression at 1 uM after 4 days in presence of Olaparib by Q-PCR analysis. Type of data set: functional, cell-based. The settings on record: time 4.0 day.
The subject of data set [27] is SW1990. As to the kind of experiment: Effect on cell cycle progression in human SW1990 cells assessed as reduction in Olaparib-induced PLK1 expression at 1 uM after 4 days in presence of Olaparib by Q-PCR analysis. The class given is functional, cell-based. Particulars: time 4.0 day.
Data set [28] concerns SW1990. As to the kind of experiment: Induction of DNA damage in human SW1990 cells assessed as tail DNA at 1 uM incubated for 4 days in presence of 3 uM Olaparib by comet assay. The class given is functional, cell-based. The settings on record: time 4.0 day.
Data set [29] has as its system SW1990. As to the kind of experiment: Induction of DNA damage in human SW1990 cells assessed as increase in gammaH2AX at 4 uM incubated for 4 days by immunofluorescence assay. Type of data set: functional, cell-based. The settings on record: time 4.0 day.
The subject of data set [30] is SW1990. The data set is described as follows: Inhibition of homologous recombinant repair in human SW1990 cells assessed as reduction in Rad51 expression at 4 uM after 4 days by Western blot analysis. Type of data set: functional, cell-based. Particulars: time 4.0 day.
Data set [31] relates to SW1990. The data set is described as follows: Inhibition of homologous recombinant repair in human SW1990 cells assessed as increase in […] expression at 4 uM after 4 days by Western blot analysis. Type of data set: functional, cell-based. The settings on record: time 4.0 day.
For data set [32], the system named is SW1990. As to the kind of experiment: Inhibition of homologous recombinant repair in human SW1990 cells assessed as reduction in c-Myc expression at 4 uM after 4 days by Western blot analysis. Type of data set: functional, cell-based. The settings on record: time 4.0 day.

`CC[C@@H]1C(=O)N(C)c2cnc(N(C)c3ccc(-c4nc5c(C(N)=O)cccc5[nH]4)cc3OC)nc2N1C1CCCC1`: the IC50 stood at 1160 nM in the data set on CFPAC-1; 1560 nM with CAPAN-1; 980 nM with SW1990 [1]; 101 nM in data set [2]; 340 nM in the data set on MDA-MB-231; 1200 nM in data set [3]. The IC50 in [4] was 1400 nM; in [5] it was 59400 nM. The values for the Activity entry in the data set on Mus musculus [6], in the data set with SW1990 [7] and with SW1990 [8] were “Non-Toxic”, 14.74% and 77.56%, respectively. In addition, the outcome in the data set with Mus musculus [9], with SW1990 [10], in the data set on SW1990 [11], in the data set with SW1990 [12] and with SW1990 [16] was Active. Besides, the inhibition entry in the data set on SW1990 [13], with SW1990 [14] and in the data set with SW1990 [15] was “Active” each time.

For `Cc1sc2c(c1C)C(c1ccc(Cl)cc1)=N[C@@H](CC(=O)OC(C)(C)C)c1nnc(C)n1-2`, the result with SW1990 [17], with Mus musculus [23], in the data set on SW1990 [25], with SW1990 [26], with SW1990 [27] and in the data set on SW1990 [28] was Active. Also, the result with SW1990 [29] was Active. The half-maximal inhibitory concentration (IC50) turned out to be 1560 nM with CFPAC-1; 2440 nM in the data set on CAPAN-1; 3740 nM in the data set on SW1990 [1]; 640 nM in the data set on MDA-MB-231; 19400 nM in data set [5]. Also, the inhibition entry (in [18]; in the data set on SW1990 [30]; with SW1990 [31]; in the data set on SW1990 [32]) was “Active” throughout. In addition, the Activity entry in the data set on Mus musculus [19] is “Non-Toxic”; with Mus musculus [20], “Non-Toxic”; in the data set with Mus musculus [21] it was “Non-Toxic”; in the data set on Mus musculus [22], “Non-Toxic”; in the data set with SW1990 [24], 5.51%.

By IC50 is commonly meant the concentration that inhibits the measured activity by half.
